Measured values reported in patent publication US6858579B2, “Anti-inflammatory compounds” (William Harvey Research Limited, priority 2001, dated 2005).
Where no end group is shown, it is not given here.

Tests used:
[1] = test system: PMN migration; experiment: Mouse air-pouch model, zymosan-induced PMN migration; assay type: in vivo, mice; details: for activity in the in vivo animal model of inflammation: mouse air-pouch model, peptide s.c., result in words; for Approximate ED50, inhibition of PMN migration: mouse air-pouch, peptide s.c. 30 min prior to 1 mg zymosan, PMN counted 4 h after zymosan, n=15, P<0.01
Method: Male Swiss Albino mice (20-22 g body weight) were purchased from Interfauna (CFLP strain; Huntingdon, Cambridgeshire, UK) and maintained on a standard chow pellet diet with tap water ad libitum. Animals were used at least one week after arrival.
Air-pouches were formed on the back of the mice by subcutaneous (s.c.) injection of 2.5 ml or air on day […]. Three days after the last air-injection (6-day-old air-pouches) 1 mg of zymosan (in 0.5 ml of sterile saline) was injected locally (Perretti et al., 1996). Zymosan was previously boiled for 30 min in phosphate buffered solution (PBS), extensively washed in the same medium and stored at −20° C. prior to use.
Four hours after the local injection of zymosan, mice were killed by CO2 exposure and the air-pouches washed with 2 ml of PBS containing ethylenediaminetetracetic acid sodium salt (EDTA; 3 mM) and heparin (25 U/ml).
Lavage fluids (essentially the entire 2 ml were consistently recovered) were centrifuged at 200 g for 10 min at 4° C. and cell pellets were resuspended in 2 ml of PBS/EDTA+heparin. The number of PMN was determined, using a Neubauer haematocytometer, after staining (1:10 dilution) with Turk's solution (crystal violet 0.01% w/v in acetic acid 3% v/v).
The following peptides were drawn from the lipocortin 1 N-terminus region: LC12-26 (Ac-[…] (SEQ ID NO:6)), LC12-12 (Ac-AMVSEFLKQAW (SEQ ID NO:4)), LC1 13-25 (FIENEEQEYVQTV (SEQ ID NO:7)), LC12-6(Ac-AMVSE ((SEQ ID NO 3))), or scramble LC12-6 (AC-SVEMA (SEQ ID NO:5)) were administered s.c. 30 min prior to injection of 1 mg zymosan into the air-pouches. Control mice were treated with sterile PBS (100 μl s.c.).

[2] = test system: A549 cell line; details: in vitro A549 model; previous publications (Croxtall et al., 1993, 1998); result in words; cited from earlier work

Substance	activity in the in vivo animal model of inflammation [1]	Approximate ED50, inhibition of PMN migration [1] [nmol]	inhibitory effect on A549 cell function [2]
AC-SVEMA (SEQ ID NO:5) (Ac-SVEMA) [scrambled version of AMVSE, reference compound]	inactive		
Ac-AMVSE ((SEQ ID NO 3)) [LC12-6, N-acetylated lipocortin 1 fragment, residues 2-6]	active	~110	
Ac-AMVSEFLKQAW (SEQ ID NO:4) [LC12-12, N-acetylated lipocortin 1 fragment, residues 2-12]	active	~110	
Ac-AMVSEFLKQAWFIENEEQEYVQTVK (SEQ ID NO:6) [LC12-26, reference compound]		~45	
EQEYVQTV (SEQ ID NO:2) [LC118-25, lipocortin 1 fragment, residues 18-25]			significant inhibitory activity
